From ChEMBL document CHEMBL4354842, “A Series of Compounds Bearing a Dipyrido-Pyrimidine Scaffold Acting as Novel Human and Insect Pest Chitinase Inhibitors” (J Med Chem, 2020)
pKd, pKi: −log10 of the molar value. Activity calls are given as the source filed them. The calls are words filed in the database; no cut-off is given here.

What was measured:
[1] = molecular target: T1, Chitinase B (Serratia marcescens) (UniProt P11797); test: Inhibition of Serratia marcescens chitinase b catalytic domain overexpressed in Escherichia coli BL21(DE3) cells at 1 uM using 4MU-(GlcNAc)2 as substrate after 30 mins by fluorescence based microplate reader analysis
T1 sequence (whole entry): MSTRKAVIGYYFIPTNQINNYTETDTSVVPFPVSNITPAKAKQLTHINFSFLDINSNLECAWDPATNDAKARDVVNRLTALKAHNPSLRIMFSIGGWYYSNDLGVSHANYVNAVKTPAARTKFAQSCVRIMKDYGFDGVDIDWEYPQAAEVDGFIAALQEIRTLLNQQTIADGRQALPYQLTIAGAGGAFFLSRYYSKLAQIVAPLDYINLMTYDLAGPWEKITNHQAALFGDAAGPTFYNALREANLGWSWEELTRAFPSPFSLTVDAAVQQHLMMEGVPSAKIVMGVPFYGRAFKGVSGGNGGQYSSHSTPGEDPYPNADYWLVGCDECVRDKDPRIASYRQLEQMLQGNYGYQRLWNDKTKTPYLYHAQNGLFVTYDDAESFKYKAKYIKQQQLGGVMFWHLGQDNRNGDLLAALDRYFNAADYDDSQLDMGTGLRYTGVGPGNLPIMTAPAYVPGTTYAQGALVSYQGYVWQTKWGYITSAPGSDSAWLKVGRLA

[2] = molecular target: Chitinase (Ostrinia furnacalis) (UniProt Q4AE59); test: Inhibition of Ostrinia furnacalis chitinase h catalytic domain overexpressed in Pichia pastoris at 1 uM using 4MU-(GlcNAc)2 as substrate after 30 mins by fluorescence based microplate reader analysis
[3] = molecular target: T2, Acidic mammalian chitinase (Homo sapiens, UniProt Q9BZP6); test: Inhibition of human acidic mammalian chitinase catalytic domain overexpressed in Pichia pastoris at 10 uM using 4MU-(GlcNAc)2 as substrate after 30 mins by fluorescence based microplate reader analysis
Target sequence in this assay (Q9BZP6 22-476 limits assumed): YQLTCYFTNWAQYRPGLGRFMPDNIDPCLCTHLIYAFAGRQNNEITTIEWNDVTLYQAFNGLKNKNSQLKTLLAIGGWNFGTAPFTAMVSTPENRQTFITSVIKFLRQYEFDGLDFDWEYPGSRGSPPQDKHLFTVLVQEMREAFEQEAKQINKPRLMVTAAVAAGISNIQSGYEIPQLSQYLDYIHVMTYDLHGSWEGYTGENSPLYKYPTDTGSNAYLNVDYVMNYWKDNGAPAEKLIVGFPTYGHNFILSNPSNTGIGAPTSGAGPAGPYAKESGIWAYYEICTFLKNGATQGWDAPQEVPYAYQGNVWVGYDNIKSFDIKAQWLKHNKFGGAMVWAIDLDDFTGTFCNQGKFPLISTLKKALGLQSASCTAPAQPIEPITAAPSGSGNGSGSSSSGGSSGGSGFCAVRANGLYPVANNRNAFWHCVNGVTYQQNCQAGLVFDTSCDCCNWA

Chitotriosidase-1 [4] = molecular target: T3, Chitotriosidase-1 (Homo sapiens, UniProt Q13231); test: Inhibition of human CHIT1 catalytic domain overexpressed in Pichia pastoris at 10 uM using 4MU-(GlcNAc)2 as substrate after 30 mins by fluorescence based microplate reader analysis
Target sequence in this assay (Q13231 22-466 limits assumed): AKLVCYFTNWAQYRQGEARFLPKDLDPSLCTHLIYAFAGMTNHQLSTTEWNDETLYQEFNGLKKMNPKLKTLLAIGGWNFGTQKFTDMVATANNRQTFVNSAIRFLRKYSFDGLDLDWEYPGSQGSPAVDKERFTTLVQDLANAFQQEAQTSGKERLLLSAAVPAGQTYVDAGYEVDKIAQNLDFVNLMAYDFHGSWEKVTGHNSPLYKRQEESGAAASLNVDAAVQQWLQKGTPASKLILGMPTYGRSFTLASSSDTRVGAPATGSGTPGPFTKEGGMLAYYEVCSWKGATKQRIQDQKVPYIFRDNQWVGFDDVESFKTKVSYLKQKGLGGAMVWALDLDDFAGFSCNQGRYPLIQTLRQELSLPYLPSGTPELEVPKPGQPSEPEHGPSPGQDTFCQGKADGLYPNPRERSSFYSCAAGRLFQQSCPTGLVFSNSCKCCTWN

Mus musculus [5] = test: In vivo inhibition of human chitinase in C57BL/6 mouse assesed as reduction in bleomycin-induced chitinase level in BALF at 2 ug/mouse, ip administered for 11 days and measured on day 12 by necropsy analysis; assay type: functional
[6] = molecular target: Chitotriosidase-1 (Mus musculus) (UniProt Q9D7Q1); test: Inhibition of chitinase in mouse BALF at 40 ug using 4-MU-(GlcNAc)2 substrate as substrate after 15 mins relative to control
[7] = molecular target: Chitotriosidase-1 (Mus musculus) (UniProt Q9D7Q1); test: Inhibition of chitinase in mouse BALF at 1 ug using 4-MU-(GlcNAc)2 substrate as substrate after 15 mins relative to control
Mus musculus [8] = test: Antifibrotic activity in bleomycin-induced C57BL/6 mouse model of pulmonary fibrosis assessed as effect on Chit1 expression at 2 ug/mouse, ip administered for 11 days and measured on day 12 post treatment by RT-qPCR analysis; assay type: functional, organism-based
Mus musculus [9] = test: Antifibrotic activity in bleomycin-induced C57BL/6 mouse model of pulmonary fibrosis assessed as effect on Areg expression at 2 ug/mouse, ip administered for 11 days and measured on day 12 post treatment by RT-qPCR analysis; assay type: functional, organism-based
Mus musculus [10] = test: Antifibrotic activity in bleomycin-induced C57BL/6 mouse model of pulmonary fibrosis assessed as effect on TGFbeta expression at 2 ug/mouse, ip administered for 11 days and measured on day 12 post treatment by RT-qPCR analysis; assay type: functional, organism-based
Mus musculus [11] = test: Antifibrotic activity in bleomycin-induced C57BL/6 mouse model of pulmonary fibrosis assessed as effect on IL33 expression at 2 ug/mouse, ip administered for 11 days and measured on day 12 post treatment by RT-qPCR analysis; assay type: functional, organism-based
Mus musculus [12] = test: Antifibrotic activity in bleomycin-induced C57BL/6 mouse model of pulmonary fibrosis assessed as effect on IL5 expression at 2 ug/mouse, ip administered for 11 days and measured on day 12 post treatment by RT-qPCR analysis; assay type: functional, organism-based
Mus musculus [13] = test: Antifibrotic activity in bleomycin-induced C57BL/6 mouse model of pulmonary fibrosis assessed as effect on IL13 expression at 2 ug/mouse, ip administered for 11 days and measured on day 12 post treatment by RT-qPCR analysis; assay type: functional, organism-based
Mus musculus [14] = test: Antifibrotic activity in bleomycin-induced C57BL/6 mouse model of pulmonary fibrosis assessed as increase in number of monocytes in lungs at 2 ug/mouse, ip administered for 11 days and measured on day 12 post treatment by flow cytometric analysis; assay type: functional, organism-based
Mus musculus [15] = test: Antifibrotic activity in bleomycin-induced C57BL/6 mouse model of pulmonary fibrosis assessed as increase in number of PDL2+ alveolar macrophages in lungs at 2 ug/mouse, ip administered for 11 days and measured on day 12 post treatment by flow cytometric analysis; assay type: functional, organism-based
Mus musculus [16] = test: Antifibrotic activity in bleomycin-induced C57BL/6 mouse model of pulmonary fibrosis assessed as increase in number of interstitial macrophages in lungs at 2 ug/mouse, ip administered for 11 days and measured on day 12 post treatment by flow cytometric analysis; assay type: functional, organism-based
[17] = molecular target: 3',5'-cyclic-AMP phosphodiesterase 4D (Homo sapiens) (UniProt Q08499); test: Inhibition of PDE4D2 (unknown origin) at 10 uM relative to control
Chitotriosidase-1 [18] = molecular target: T3, Chitotriosidase-1; test: Inhibition of human CHIT1 catalytic domain overexpressed in Pichia pastoris at 50 uM using 4MU-(GlcNAc)2 as substrate after 30 mins by fluorescence based microplate reader analysis relative to control
Target sequence in this assay (Q13231 22-466 limits assumed): as above

Chitinase B [19] = molecular target: T4, Chitinase B (Serratia marcescens, UniProt P11797); test: Binding affinity to Serratia marcescens chitinase b catalytic domain overexpressed in Escherichia coli BL21(DE3) cells by isothermal titration calorimetry
T4 sequence (P11797 whole entry): T1 sequence (whole entry)

[20] = molecular target: T1, Chitinase B (Serratia marcescens); test: Binding affinity to Serratia marcescens chitinase b catalytic domain overexpressed in Escherichia coli BL21(DE3) cells assessed as association constant by isothermal titration calorimetry
Chitotriosidase-1 [21] = molecular target: T3, Chitotriosidase-1; test: Binding affinity to human CHIT1 catalytic domain overexpressed in Pichia pastoris assessed by isothermal titration calorimetry
Target sequence in this assay (Q13231 whole entry, the tested form may be a part): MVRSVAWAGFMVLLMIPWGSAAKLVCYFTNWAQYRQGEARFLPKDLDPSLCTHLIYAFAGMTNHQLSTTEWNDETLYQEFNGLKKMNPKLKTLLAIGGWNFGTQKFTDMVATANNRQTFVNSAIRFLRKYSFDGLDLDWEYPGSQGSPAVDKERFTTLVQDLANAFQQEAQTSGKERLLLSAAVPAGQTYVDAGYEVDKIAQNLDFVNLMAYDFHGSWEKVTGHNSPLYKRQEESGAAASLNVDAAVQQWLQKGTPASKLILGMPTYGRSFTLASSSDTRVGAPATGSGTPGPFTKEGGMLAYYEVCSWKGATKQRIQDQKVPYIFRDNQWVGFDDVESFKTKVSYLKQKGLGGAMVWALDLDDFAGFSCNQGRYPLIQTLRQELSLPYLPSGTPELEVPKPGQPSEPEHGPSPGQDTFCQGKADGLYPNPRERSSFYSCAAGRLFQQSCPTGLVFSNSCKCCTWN

Chitotriosidase-1 [22] = molecular target: T3, Chitotriosidase-1; test: Binding affinity to human CHIT1 catalytic domain overexpressed in Pichia pastoris assessed as association constant by isothermal titration calorimetry
Target sequence in this assay (Q13231 22-466 limits assumed): as the sequence (Q13231 22-466 limits assumed) above

Chitinase B [23] = molecular target: T4, Chitinase B; test: Inhibition of Serratia marcescens chitinase b catalytic domain overexpressed in Escherichia coli BL21(DE3) cells using 4MU-(GlcNAc)2 as substrate after 30 mins by fluorescence based microplate reader analysis
Chitinase [24] = molecular target: T5, Chitinase (Ostrinia furnacalis, UniProt Q4AE59); test: Inhibition of Ostrinia furnacalis chitinase h catalytic domain overexpressed in Pichia pastoris using 4MU-(GlcNAc)2 as substrate after 30 mins by fluorescence based microplate reader analysis
[25] = molecular target: Acidic mammalian chitinase (Mus musculus, UniProt Q91XA9); test: Inhibition of mouse acidic mammalian chitinase catalytic domain overexpressed in Pichia pastoris using 4MU-(GlcNAc)2 as substrate after 30 mins by fluorescence based microplate reader analysis
Chitotriosidase-1 [26] = molecular target: Chitotriosidase-1 (Mus musculus, UniProt Q9D7Q1); test: Inhibition of mouse CHIT1 catalytic domain overexpressed in Pichia pastoris using 4MU-(GlcNAc)2 as substrate after 30 mins by fluorescence based microplate reader analysis
[27] = molecular target: T2, Acidic mammalian chitinase; test: Inhibition of human acidic mammalian chitinase catalytic domain overexpressed in Pichia pastoris using 4MU-(GlcNAc)2 as substrate after 30 mins by fluorescence based microplate reader analysis
Target sequence in this assay (Q9BZP6 whole entry, the tested form may be a part): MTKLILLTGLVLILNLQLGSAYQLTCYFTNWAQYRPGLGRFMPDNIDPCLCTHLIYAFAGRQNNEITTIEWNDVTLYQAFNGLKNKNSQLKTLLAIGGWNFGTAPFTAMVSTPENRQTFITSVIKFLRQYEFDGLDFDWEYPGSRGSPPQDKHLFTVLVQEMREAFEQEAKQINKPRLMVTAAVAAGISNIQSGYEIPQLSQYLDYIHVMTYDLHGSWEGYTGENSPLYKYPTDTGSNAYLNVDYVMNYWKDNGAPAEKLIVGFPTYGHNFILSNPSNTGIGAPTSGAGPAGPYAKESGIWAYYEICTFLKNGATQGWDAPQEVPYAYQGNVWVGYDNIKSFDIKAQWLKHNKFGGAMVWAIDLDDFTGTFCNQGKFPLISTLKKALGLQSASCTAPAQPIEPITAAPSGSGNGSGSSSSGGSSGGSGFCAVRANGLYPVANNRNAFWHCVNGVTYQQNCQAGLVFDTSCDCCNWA

Chitotriosidase-1 [28] = molecular target: T3, Chitotriosidase-1; test: Inhibition of human CHIT1 catalytic domain overexpressed in Pichia pastoris using 4MU-(GlcNAc)2 as substrate after 30 mins by fluorescence based microplate reader analysis
Target sequence in this assay (Q13231 whole entry, the tested form may be a part): as the sequence (Q13231 whole entry, the tested form may be a part) above

Chitinase [29] = molecular target: T5, Chitinase; test: Binding affinity to Ostrinia furnacalis chitinase h catalytic domain overexpressed in Pichia pastoris by isothermal titration calorimetry

Sequence of Chitinase (Ostrinia furnacalis) (Q4AE59 as listed by the source): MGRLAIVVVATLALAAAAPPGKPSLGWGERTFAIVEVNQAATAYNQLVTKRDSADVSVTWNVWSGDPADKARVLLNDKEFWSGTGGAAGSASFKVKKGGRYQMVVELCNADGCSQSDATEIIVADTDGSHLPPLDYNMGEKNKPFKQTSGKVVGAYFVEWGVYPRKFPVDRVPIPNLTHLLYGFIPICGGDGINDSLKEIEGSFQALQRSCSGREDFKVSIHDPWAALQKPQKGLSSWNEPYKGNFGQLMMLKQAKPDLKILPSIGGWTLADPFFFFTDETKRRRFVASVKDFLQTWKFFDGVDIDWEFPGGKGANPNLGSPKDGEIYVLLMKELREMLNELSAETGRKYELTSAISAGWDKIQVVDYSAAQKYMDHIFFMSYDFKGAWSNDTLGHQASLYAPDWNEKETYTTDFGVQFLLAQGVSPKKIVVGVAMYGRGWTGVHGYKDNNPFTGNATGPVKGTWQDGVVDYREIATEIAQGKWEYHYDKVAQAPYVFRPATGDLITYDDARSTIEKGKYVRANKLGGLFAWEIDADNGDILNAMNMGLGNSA
Sequence of Chitotriosidase-1 (Mus musculus) (Q9D7Q1 22-464 limits assumed): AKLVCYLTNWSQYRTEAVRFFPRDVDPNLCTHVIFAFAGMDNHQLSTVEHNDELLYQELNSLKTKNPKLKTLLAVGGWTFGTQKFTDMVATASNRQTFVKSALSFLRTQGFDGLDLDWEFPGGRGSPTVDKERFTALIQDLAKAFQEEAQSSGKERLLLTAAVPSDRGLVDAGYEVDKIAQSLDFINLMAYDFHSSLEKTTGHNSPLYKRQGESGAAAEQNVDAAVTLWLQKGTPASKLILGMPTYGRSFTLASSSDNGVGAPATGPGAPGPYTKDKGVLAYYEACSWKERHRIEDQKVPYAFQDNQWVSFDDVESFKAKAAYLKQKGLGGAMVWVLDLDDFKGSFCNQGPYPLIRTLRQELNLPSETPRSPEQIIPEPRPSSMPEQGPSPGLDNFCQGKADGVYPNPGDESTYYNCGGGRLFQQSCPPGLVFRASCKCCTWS
T5 sequence (Q4AE59 whole entry, the tested form may be a part): as the sequence (Q4AE59 as listed by the source) above
Sequence of Chitotriosidase-1 (Mus musculus, UniProt Q9D7Q1) (Q9D7Q1 whole entry, the tested form may be a part): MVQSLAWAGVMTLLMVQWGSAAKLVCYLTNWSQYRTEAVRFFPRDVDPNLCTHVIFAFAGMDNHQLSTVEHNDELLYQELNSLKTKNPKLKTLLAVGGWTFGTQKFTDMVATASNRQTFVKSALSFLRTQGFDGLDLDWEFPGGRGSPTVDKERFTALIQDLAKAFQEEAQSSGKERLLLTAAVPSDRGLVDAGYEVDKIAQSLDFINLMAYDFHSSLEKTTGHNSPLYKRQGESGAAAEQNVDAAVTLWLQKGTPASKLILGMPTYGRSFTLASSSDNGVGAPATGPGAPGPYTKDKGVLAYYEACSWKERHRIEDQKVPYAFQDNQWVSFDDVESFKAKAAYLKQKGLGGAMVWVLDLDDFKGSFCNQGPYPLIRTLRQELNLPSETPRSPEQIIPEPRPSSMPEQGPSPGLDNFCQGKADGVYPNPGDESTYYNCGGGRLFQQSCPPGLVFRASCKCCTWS
Sequence of 3',5'-cyclic-AMP phosphodiesterase 4D (Homo sapiens) (Q08499 whole entry, the tested form may be a part): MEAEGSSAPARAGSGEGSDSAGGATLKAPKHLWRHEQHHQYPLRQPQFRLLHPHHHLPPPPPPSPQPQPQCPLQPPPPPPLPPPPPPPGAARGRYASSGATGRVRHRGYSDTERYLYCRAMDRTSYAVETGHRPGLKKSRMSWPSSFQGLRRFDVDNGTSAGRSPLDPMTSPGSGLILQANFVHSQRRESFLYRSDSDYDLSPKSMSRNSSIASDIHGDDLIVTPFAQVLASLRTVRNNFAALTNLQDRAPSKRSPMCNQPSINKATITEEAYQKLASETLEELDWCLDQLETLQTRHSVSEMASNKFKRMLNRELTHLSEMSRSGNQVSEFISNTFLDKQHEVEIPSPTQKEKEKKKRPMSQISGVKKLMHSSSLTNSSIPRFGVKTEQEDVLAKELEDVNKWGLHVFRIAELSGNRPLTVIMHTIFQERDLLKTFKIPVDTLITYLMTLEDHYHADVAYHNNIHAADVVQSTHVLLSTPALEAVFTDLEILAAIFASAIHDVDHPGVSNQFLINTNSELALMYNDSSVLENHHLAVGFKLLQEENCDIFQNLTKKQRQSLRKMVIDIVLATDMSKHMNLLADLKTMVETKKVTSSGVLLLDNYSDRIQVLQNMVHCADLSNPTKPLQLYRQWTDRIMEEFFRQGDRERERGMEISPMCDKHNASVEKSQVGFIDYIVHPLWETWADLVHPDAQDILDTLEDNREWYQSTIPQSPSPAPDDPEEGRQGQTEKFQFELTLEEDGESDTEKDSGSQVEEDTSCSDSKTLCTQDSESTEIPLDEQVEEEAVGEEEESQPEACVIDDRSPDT
Sequence of Acidic mammalian chitinase (Mus musculus, UniProt Q91XA9) (Q91XA9 whole entry, the tested form may be a part): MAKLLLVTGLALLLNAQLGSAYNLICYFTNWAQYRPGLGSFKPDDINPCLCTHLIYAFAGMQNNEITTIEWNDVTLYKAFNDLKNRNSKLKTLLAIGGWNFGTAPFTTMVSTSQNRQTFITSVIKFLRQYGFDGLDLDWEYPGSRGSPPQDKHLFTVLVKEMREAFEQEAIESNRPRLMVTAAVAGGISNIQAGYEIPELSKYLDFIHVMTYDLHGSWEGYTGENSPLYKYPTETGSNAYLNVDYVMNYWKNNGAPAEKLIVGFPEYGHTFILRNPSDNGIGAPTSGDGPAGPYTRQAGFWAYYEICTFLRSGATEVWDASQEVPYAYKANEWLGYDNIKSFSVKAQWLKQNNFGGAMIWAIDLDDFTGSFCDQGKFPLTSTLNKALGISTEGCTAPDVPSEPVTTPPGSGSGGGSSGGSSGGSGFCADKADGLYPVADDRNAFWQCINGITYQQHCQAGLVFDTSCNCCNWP

Compound | inhibition [1] | inhibition [2] | inhibition [3] | inhibition (Chitotriosidase-1 [4]) | further results
Cc1cccn2c(=O)c3cc(C#N)c(=N)n(Cc4ccccc4)c3nc12 | inactive | inactive | inactive | inactive | 
COCCn1c(=N)c(C(=O)NCCN2CCCCC2)cc2c(=O)n3ccccc3nc21 | inactive | inactive | inactive | inactive | 
C=CCn1c(=N)c(C(=O)N2CCN(C)CC2)cc2c(=O)n3cccc(C)c3nc21 | inactive | inactive | inactive | inactive | 
CC(NC(=O)c1cc2c(=O)n3ccccc3nc2n(Cc2ccccc2)c1=N)c1ccccc1 (configuration not stated) | Active | Active | Active | Active | inhibition (INH) (Mus musculus [5]): 100%; inhibition [6]: 55%; inhibition [7]: 35%; Activity (Mus musculus [8]): inactive; Activity (Mus musculus [9]): inactive; Activity (Mus musculus [10]): inactive; Activity (Mus musculus [11]): inactive; Activity (Mus musculus [12]): inactive; Activity (Mus musculus [13]): Active; Activity (Mus musculus [14]): Active; Activity (Mus musculus [15]): Active; Activity (Mus musculus [16]): Active; inhibition [17]: 87.8%
COCCCn1c(=N)c(C(=O)NCc2ccc(C)cc2)cc2c(=O)n3ccccc3nc21 | inactive | inactive | inactive | inactive | 
COCCCn1c(=N)c(C(=O)NCc2ccc(F)cc2)cc2c(=O)n3ccccc3nc21 | inactive | inactive | inactive | inactive | 
Cc1cccn2c(=O)c3cc(C(=O)NCc4cccnc4)c(=N)n(Cc4ccc(F)cc4)c3nc12 | Active | Active | Active | Active | 
N=c1c(C(=O)NCC2CCCO2)cc2c(=O)n3ccccc3nc2n1Cc1ccco1 (configuration not stated) |  |  |  |  | inhibition (Chitotriosidase-1 [18]): 100%
COCCCn1c(=N)c(C(=O)NCc2ccc(OC)cc2)cc2c(=O)n3ccccc3nc21 | inactive | inactive | inactive | inactive | 
CNC(=O)c1cc2c(=O)n3cc(C)ccc3nc2n(Cc2cccnc2)c1=N | inactive | inactive | inactive | inactive | 
Cc1cccn2c(=O)c3cc(C(=O)NCc4cccnc4)c(=N)n(CC4CCCO4)c3nc12 (configuration not stated) | Active | Active | Active | Active | pKd (Chitinase B [19]): 6.72; Ka [20]: 5.1e+06 M⁻¹; pKd (Chitotriosidase-1 [21]): 5.95; Ka (Chitotriosidase-1 [22]): 895000 M⁻¹; pKi (Chitinase B [23]): 7.24; pKi (Chitinase [24]): 8.05; pKi [25]: 5.86; pKi (Chitotriosidase-1 [26]): 5.71; pKi [27]: 5.01; pKi (Chitotriosidase-1 [28]): 5.95; pKd (Chitinase [29]): 7.07
COCCCn1c(=N)c(-c2nc3ccccc3s2)cc2c(=O)n3ccccc3nc21 | inactive | inactive | inactive | inactive | 
Cc1cccn2c(=O)c3cc(C#N)c(=N)n(Cc4cccnc4)c3nc12 | inactive | inactive | inactive | inactive | 

Now from value to compound, other results behind:

inhibition [1] | inhibition [2] | inhibition [3] | inhibition (Chitotriosidase-1 [4]) | Compound | further results
Active | Active | Active | Active | Cc1ccc2nc3c(cc(C(=O)NCc4cccnc4)c(=N)n3C[C@H]3CCCO3)c(=O)n2c1 | 
Active | Active | Active | Active | C[C@@H](NC(=O)c1cc2c(=O)n3ccccc3nc2n(C[C@H]2CCCO2)c1=N)c1ccccc1 | 
inactive | inactive | inactive | inactive | N=c1c(C(=O)NC2CCCCC2)cc2c(=O)n3ccccc3nc2n1Cc1cccnc1 | 
Active | Active | Active | Active | Cc1ccc2nc3c(cc(C(=O)N[C@H](C)c4ccccc4)c(=N)n3C[C@H]3CCCO3)c(=O)n2c1 | 
Active | Active | Active | Active | Cc1cccn2c(=O)c3cc(C(=O)NCc4cccnc4)c(=N)n(Cc4ccco4)c3nc12 | 
inactive | inactive | inactive | inactive | COC(=O)c1cc2c(=O)n3ccccc3nc2n(Cc2cccnc2)c1=N | 
Active | Active | Active | Active | Cc1cccn2c(=O)c3cc(C(=O)N[C@H](C)c4ccccc4)c(=N)n(C[C@H]4CCCO4)c3nc12 | 
Active | Active | Active | Active | N=c1c(C(=O)NCc2cccnc2)cc2c(=O)n3ccccc3nc2n1Cc1ccccc1 | 
inactive | inactive | inactive | inactive | COCCCn1c(=N)c(C(=O)NCc2cccnc2)cc2c(=O)n3ccccc3nc21 | 
Active | Active | Active | Active | COCCCn1c(=N)c(C(=O)N[C@@H](C)c2ccccc2)cc2c(=O)n3ccccc3nc21 | 
inactive | inactive | inactive | inactive | CCOC(=O)c1cc2c(=O)n3ccccc3nc2n(Cc2ccco2)c1=N | 
